Measured values reported in patent US20230295436A1, “INTERMOLECULARLY-FABRICATED COMPOSITION FOR ENCAPSULATING PLANT MATERIALS, AGROCHEMICALS AND PHARMACEUTICALS” (University of Central Florida Research Foundation, Inc., priority 2022, published 2023).
Converted amounts (≈) assume the structure as drawn.

Key:
S16 Rat Schwann Cells = test: AlamarBlue viability assay, S16; assay type: cell-based; conditions: S16 RSCs, 24 hours, 0 to 80 μM curcumin
Procedure: The viability of cells when treated with Cur-TA-PVP, TA-PVP, or free curcumin was assessed to determine the therapeutic window of treatments. This was done by performing an alamarBlue (resazurin) assay according to the manufacturer's instructions. The cell types assessed were models for those involved in PNI and subsequent PNR: S16 rat Schwann cells (RSCs), J744 murine macrophages, and SH-SY5Y cells (neuronal cell line). SH-SY5Y cells were cultured in DMEM/F12 supplemented with 10% FBS and 1% penicillin/streptomycin, whereas the J744 macrophages and S16 RSCs were cultured in DMEM supplemented with 10% FBS and 1% streptomycin/penicillin.
First, cells (n=3) were seeded in 96 well plates at a density of 10^4 cells per well and incubated overnight in a humidified atmosphere at 37° C. and 5% CO2. Cur-TA-PVP and free curcumin were then introduced into the wells at a concentration range of 0 to 80 μM curcumin. In the case of TA-PVP, the concentration range was equivalent to TA and PVP concentrations in the Cur-TA-PVP NPs. The plates were incubated for 24 hours, and the media containing treatments was then removed and fresh media with 10% 0.15 mg/mL resazurin was added into all wells. The plates were incubated for 2 hours, and the fluorescence was read using a Tecan plate reader at an ex/em of 560/590 nm. The cell viability was calculated using the following equation.

[1] = Appearance / colloidal stability in water; assay type: physicochemical; conditions: aqueous solution
Text: Biochim Biophys Acta, 2008. 1780(4): p. 673-9.]. Curcumin directly interacts with or leads to the upregulation of many intracellular proteins involved in anti-inflammation, antioxidant, neuroprotective, and re-myelination pathways [Caillaud, M., et al., Key Developments in the Potential of Curcumin for the Treatment of Peripheral Neuropathies. Antioxidants (Basel), 2020. 9(10).]. Thus, the therapeutic potential of free curcumin is lowered by its propensity to reside in the lipid bilayer. Since the TA-PVP carrier improves the stability of curcumin in water, it is therefore expected that this would enhance its availability within the cytoplasm of cells to reach or upregulate targets involved in achieving successful PNR. The NP formulation dramatically increases the colloidal stability of curcumin compared to its free form alone in the aqueous solution.

[2] = Dynamic light scattering (hydrodynamic size, PDI); assay type: physicochemical; conditions: optimized formulations and controls, Table 1
Text: (§1) Malvern Zetasizer Nano ZS90 was used to study the hydrodynamic size, surface charge, and polydispersity index (PDI) of the NPs. Agilent Cary 300 Bio UV-Vis spectrophotometer was used to measure the absorbance of materials across the UV-Visible spectrum. Spectronic 200 spectrophotometer was used to carry out the degradation and release rate studies. Samples were freeze-dried using a Labconco lyophilizer. Shimadzu IRSpirit with QATR-S was used to obtain
(§2) DLS and ZP measurements were done using a Malvern Zetasizer ZS90 to determine the samples' hydrodynamic size and surface charge, respectively. The samples were diluted to approximately 200 ppm of curcumin to obtain 100 to 1000 kilo counts per second (kcps). Samples were added into the appropriate cuvettes for DLS and ZP readings.

SH-SY5Y cells = test: H2O2-induced oxidative stress and cell viability, SH-SY5Y; assay type: cell-based; conditions: 6 hours pre-treatment, 50 μM H2O2 for 18 hours
Procedure: The potential for Cur-TA-PVP, TA-PVP, or free curcumin to rescue cells from oxidative damage induced by H2O2 was assessed to determine the antioxidant activity of the treatments in cells. The assay was performed according to a previously published protocol by Mahakunakorn et al. [Mahakunakorn, P., et al., Cytoprotective and cytotoxic effects of curcumin: dual action on H2O2-induced oxidative cell damage in NG108-15 cells. Biol Pharm Bull, 2003. 26(5): p. 725-8.]. Briefly, SH-SY5Y cells and J744 murine macrophages were each seeded in 96 well plates (n=3) and incubated overnight at 37° C. and 5% CO2. Cells were then pre-treated with fresh media containing treatments for 6 hours, and then with fresh media containing 100 μM H2O2 (J774) or 50 μM (SH-SY5Y) for another 18 hours. The media was then replaced with complete media containing 10% of 0.15 mg/mL resazurin. The cells were incubated for 2 hours, and the fluorescence was read at an ex/em of 560/590 nm. The cell viability was determined using the equation noted in section 10.3.1.

[3] = Degradation rate of curcumin in aqueous solution; assay type: physicochemical
Procedure: The degradation rate of Cur-TA-PVP NPs and free curcumin was determined by measuring the peak absorbance over time as this can be correlated to the concentration in solution. […] Absorbance readings of samples were acquired at 425 nm every 60 minutes for 24 hours. Degradation rate equations were determined based on the trendlines that provide an R2 of 0.95 or greater. Simple linear regressions were also performed to compare the slopes of the degradation curves to determine if the difference was statistically significant.

[4] = cited from earlier work
[5] = Zeta potential (surface charge); assay type: physicochemical; conditions: optimized formulations and controls, Table 1
Text: as §1, §2

COc1cc(/C=C/C(=O)CC(=O)/C=C/c2ccc(O)c(OC)c2)ccc1O [Free Curcumin, curcumin]
cell viability compared to other treatment groups (S16 Rat Schwann Cells): higher cell viability than the other treatment groups at all concentrations | colloidal stability in water (appearance) [1]: precipitate and sink to the bottom of the vial | Polydispersity Index (PDI) [2]: 0.578 | Z-ave [2]: 328 nm·days | protection against H2O2-induced oxidative stress (cell rescue) (SH-SY5Y cells): no cell rescue | slope of degradation curve (simple linear regression) ([3]; 40 μM in water, absorbance at 425 nm every 60 minutes for 24 hours): −0.01123 | curcumin remaining in its viable form ([3]; after 24 hours of dispersion in PBS): about 60% | water solubility [4]: 100 µg/mL (≈ 271 µM) | Zeta Potential [5]: −13 mV
